The target in this assay is T1, gastrin (CCK2) receptors (Rattus norvegicus, UniProt P30553).
T1 construct: The stomach was excised and flushed with ca. 1 ml of unbuffered physiological saline solution; from tissue; host or cells: isolated, lumen-perfused stomach of immature rats (33-50 g, ca. 21 days old)
T1 sequence (P30553 1-452): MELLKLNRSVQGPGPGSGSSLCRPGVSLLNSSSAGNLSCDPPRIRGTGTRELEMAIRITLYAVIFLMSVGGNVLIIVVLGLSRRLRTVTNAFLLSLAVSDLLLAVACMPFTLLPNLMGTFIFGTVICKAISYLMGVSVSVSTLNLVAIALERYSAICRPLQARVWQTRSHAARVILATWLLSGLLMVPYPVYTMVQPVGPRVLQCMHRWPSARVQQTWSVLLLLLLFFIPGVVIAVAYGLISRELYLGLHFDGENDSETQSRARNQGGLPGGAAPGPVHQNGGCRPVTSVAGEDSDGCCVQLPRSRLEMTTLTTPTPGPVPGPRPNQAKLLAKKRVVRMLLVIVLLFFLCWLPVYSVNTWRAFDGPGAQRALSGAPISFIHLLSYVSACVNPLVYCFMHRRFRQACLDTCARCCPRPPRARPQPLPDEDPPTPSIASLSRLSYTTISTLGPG
The assay can be described thus: immature rat stomach assay, gastrin (CCK2) antagonist activity against pentagastrin-stimulated acid secretion. Type of assay: cell-based. The settings on record: isolated immature rat stomach, pentagastrin dose-response curves, 60 min after drug addition; for Kb: read-out: Rat Stomach pKB (converted). The method, then:
The compounds of the examples were tested for gastrin (CCK2) antagonist activity in an immature rat stomach assay. The procedure was as follows:
The oesophagus of immature rats (33-50 g, ca. 21 days old) was ligated at the level of the cardiac sphincter and the duodenal sphincter was cannulated. The stomach was excised and flushed with ca. 1 ml of unbuffered physiological saline solution. The fundus was punctured and cannulated. A further 4-5 ml of unbuffered solution was flushed through the stomach to ensure the preparation was not leaking. The stomach was lowered into a jacketed organ bath containing 40 ml of buffered solution containing 3×10^−8 M 5-methylfurmethide, maintained at 37° and gassed vigorously with 95% O2/5% CO2. The stomach was continuously perfused at a rate of 1 ml min^−1 with unbuffered solution gassed with 100% O2 with the perfusate passing over an internally referenced pH-electrode fixed 12 cm above the stomach.
After 120 min of stabilisation the drugs were added directly to the serosal solution in the organ bath and after a further 60 min cumulative pentagastrin dose-response curves were started. Changes in acid secretion were monitored and the curves analysed according to Black et al., Br. J. Pharmacol., 1985, 86, 581.

On to `Cc1ccccc1-n1nc(COC23CC4CC(CC(C4)C2)C3)c(C(=O)Nc2cccc(C(=O)O)c2)c1O` [Example 3, 3-{[3-(Adamantan-1-yloxymethyl)-5-hydroxy-1-o-tolyl-1H-pyrazole-4-carbonyl]-amino}-benzoic acid], for which the Kb was 19.1 nM. On the same count and under the same terms, next, `Cn1c(COC23CC4CC(CC(C4)C2)C3)c(C(=O)Nc2cccc(C(=O)O)c2)c(=O)n1C1CCCCC1` [Example 6, 3-{[5-(Adamantan-1-yloxymethyl)-2-cyclohexyl-1-methyl-3-oxo-2,3-dihydro-1H-pyrazole-4-carbonyl]-amino}-benzoic acid]: 269 nM; `O=C(O)c1cccc(NC(=O)c2c(COC34CC5CC(CC(C5)C3)C4)nn(C3CCCCC3)c2O)c1` [Example 4, 3-{[3-(Adamantan-1-yloxymethyl)-1-cyclohexyl-5-hydroxyl-1H-pyrazole-4-carbonyl]-amino}-benzoic acid]: 30.9 nM. “3-{[3-(Adamantan-1-yloxymethyl)-3-phenyl-1-o-tolyl-1H-pyrazole-4-carbonyl]-amino}-benzoic acid [Example 2]”: the “Rat Stomach pKB” value is 5.66 ± 0.24.

Take `COc1c(C(=O)Nc2cccc(C(=O)O)c2)c(COC23CC4CC(CC(C4)C2)C3)nn1C1CCCCC1` [Example 5, 3-{[3-(Adamantan-1-yloxymethyl)-1-cyclohexyl-5-methoxy-1H-pyrazole-4-carbonyl]-amino}-benzoic acid]: the Kb is 170 nM.

These data come from US6956053B2, “Pyrazole derivatives and their use as gastrin and cholecystokin receptor ligands” (The James Black Foundation Limited, priority 2000, dated 2005).
